Results reported in patent US20060159639A1, “Pseudo body odor composition and perfume composition for inhibiting body odor” (priority 2003, published 2006).
Where two headings read alike, the source gives them in different places.

Test: Suppression test of Experimental Example 1: masking and harmonizing effect in a cup, four expert panelists;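 for harmonizing: score 1 means in harmony 0 indefinite and −1 not in harmony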
Conditions: for Masking: scale 0-3
Protocol: In the present invention, the selection of the above component (I), component (II) and component (III) was carried out as follows. That is, one of the pseudo body odor compositions mentioned above and a target fragrance component were mixed and left at room temperature for 30 minutes. Thereafter, evaluations of the masking and harmonizing effects to the acid odor were carried out by four expert panelists.
After 30 minutes, a hole of about 1 cm in diameter was formed in the aluminum foil and the investigations of masking effect and the harmonizing effect were carried out according to following evaluation criteria by four expert panelists.
3: Excellent in the masking.
2: Substantially excellent in the masking.
1: Slightly sensible of the body odor (sweat odor and armpit odor).
0: Sensible of the body odor (sweat odor and armpit odor) (insufficient in the masking)

[1] = 200 μl pseudo body odor composition of Example 4 and 10 μl perfume on filter papers in sealed about 500 ml cup, after 30 minutes, four expert panelists
[2] = 200 μl pseudo body odor composition of Example 4 and 10 μl perfume on filter papers in sealed about 500 ml cup, after 30 minutes, four expert panelists, scale −1 to 1

Row | Molecule | Masking [1] | Harmonizing [2] | Harmonizing
1 | CC(C=O)Cc1ccc(C(C)C)cc1 (centres unmarked) [Cyclamen aldehyde, 2-methyl-3-(4-isopropylphenyl)propanal] | 1.5 points | −1 | 
2 | C=CCOC(=O)CCCCC [Allyl caproate] | 3 | 1 | 
3 | CC(C)=CCCC(C)CC#N (centres unmarked) [Citronellyl nitrile] | 3 | 1 | 
4 | CC(=O)C1(C)CC2=C(CCCC2(C)C)CC1C (centres unmarked) [Iso E super, 7-acetyl-1,2,3,4,5,6,7,8-octahydro-1,1,6,7-tetramethyl naphthalene] | 1 | −1 | 
5 | CC(=O)OCc1ccccc1 [Benzyl acetate] | 2.5 points | 1 | 
6 | CC(C)c1ccc(C=O)cc1 [Cumin aldehyde] | 1.5 points | −1 | 
7 | CC/C=C\CCOC(C)=O [cis-3-Hexenyl acetate] | 3 | 1 | 
8 | O=CCc1ccccc1 [Phenyl acetoaldehyde] | 3 | 1 | 
9 | CC(=O)C1=C(C)[C@@H]2C[C@@]3(C1)[C@H](C)CC[C@H]3C2(C)C [Woodyflor, acetylcedrene] | 1.5 points | −1 | 
10 | Methylionone | 2 | 1 | 
11 | O=C1CCCCCCCCCCCC(=O)OCCO1 [Musk T, ethylene brassylate] | 0.5 points | −1 | 
12 | CC(C)Cc1ccc2ncccc2c1 [Isobutyl quinoline] | 2 | 1 | 
13 | CCCC(O)CCC1C(C)CCCC1(C)C (centres unmarked) [Ambestol, 1-(2,2,6-trimethylcyclohexyl)-3-hexanol] | 0 | −1 | 
14 | CC(CC=O)CCCC(C)(C)O (centres unmarked) [Hydroxycitronellal] | 1 | 0 | 
15 | CC(=O)OC(C)(C)Cc1ccccc1 [Dimethylbenzyl carbinyl acetate] | 1 | −1 | 
16 | CC(=O)OCCc1ccccc1 [Phenylethyl acetate] | 2.5 points | 1 | 
17 | CO[C@]1(C)CC[C@@]23C[C@@H]1C(C)(C)[C@@H]2CC[C@H]3C [Cedryl methyl ether] | 1 | −1 | 
18 | O=CCCC=C1CC2CC1C1CCCC21 (centres unmarked) [4-Tricyclodecylene butanal] | 1.5 points | 0 | 
19 | CCCCCC1=C(C)CCC1=O [Dihydrojasmone, 3-methyl-2-pentyl-2-cyclopentene-1-one] | 1 | 0 | 
20 | COc1ccc(C=O)cc1 [4-Methoxybenzaldehyde] | 2.5 points | 1 | 
21 | CC1(C)C2CCC1(C)C(O)C2 (centres unmarked) [Borneol] | 2.5 points | 1 | 
22 | CC1=CC(C)C(C=O)CC1 (centres unmarked) [Tripral, Dimethyl tetrahydrobenzaldehyde] | 3 | 1 | 
23 | CCCCCCCC1CCC(=O)O1 (centres unmarked) [γ-Undecalactone] |  |  | 1
24 | CCCCCOC(=O)c1ccccc1O [Amyl salicylate] | 1 | 0 | 
25 | COC(Cc1ccccc1)OC [Phenylactoaldehyde dimethylacetal] | 2 | 1 | 
26 | CC(C)[C@@H]1CC[C@@H](C)C[C@H]1O [l-Menthol] | 1 | −1 | 
27 | CC(C)[C@H]1CC[C@@H](CO)CC1 [Myol, cis-p-isopropylcyclohexyl methanol] | 1 | −1 | 
